Measurements taken from US20180110711A1, “METHOD OF ENHANCING HAIR GROWTH” (Allergan, Inc., priority 2011, published 2018).

Tests used:
[1] = tested on: mouse model for hair growth; assay: Mouse model for hair growth, Study 10-04 (Test One); format: in vivo; details: compared with vehicle or single agents
Source text: A comparison of topical compositions comprising bimatoprost or minoxidil, alone, and the combination of bimatoprost and minoxidil, in a single composition, with the vehicle, for onset of hair growth and full hair growth, in a mouse model for hair growth, gave the results summarized in Table 1, below, and FIG. 5.

[2] = tested on: mouse model of hair growth; assay: Mouse model of hair growth, Study 10-06 (Test Two); format: in vivo
Source text: FIGS. 6 through 8 show the results of a separate testing (Test Two) of synergistic composition of the invention in the same mouse model of hair growth, with FIG. 6 being the Vehicle, FIG. 7 being 0.03% Bimatoprost, alone, and FIG. 8 being the synergistic composition, i.e. 0.03% Bimatoprost and 5% Rogaine (minoxidil).

Compound | full hair growth (in words, comparison) [1] | onset of hair growth (in words, comparison) [1] | full hair growth (in words, comparison) ([2]; compared with vehicle) | onset of hair growth (in words, comparison) ([2]; compared with vehicle or bimatoprost alone)
CCNC(=O)CCC/C=C\C[C@@H]1[C@@H](/C=C/[C@@H](O)CCc2ccccc2)[C@H](O)C[C@@H]1O [BIMATOPROST 0.03%, cyclopentane N-ethyl heptanamide-5-cis-2-(3α-hydroxy-5-phenyl-1-trans-pentenyl)-3,5-dihydroxy, [1α,2α,3α,5α]] | did not obtain the result of full hair growth faster then the vehicle | faster onset of hair growth | did not obtain the result of full hair growth faster then the vehicle | faster onset of hair growth
Nc1cc(N2CCCCC2)nc(N)[n+]1[O-] [MINOXIDIL 5%, minoxidil] | did not obtain the result of full hair growth faster then the vehicle | faster onset of hair growth |  | 
